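The compound was tested at five concentrations on cells cultured in 96-well plates, with a 48-hour exposure period. Here, GI50 denotes the concentration required for 50% inhibition of growth.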 The source made the active and inactive calls. Cut-off read from the data, not from the text of the source: active = GI50 up to about 1.1 µM and inactive = higher. Where only a bound is given, the exact number is not on record here.

Assay in all cases: NCI tumour cell line growth inhibition, 48 h
For experiment [1], the system named is SNB-19.
Experiment [2] concerns UO-31.
The subject of experiment [3] is SF-295.
Experiment [4] has as its system A549.
In experiment [5] the test system is RXF 393.
Experiment [6] deals with TK-10.
Experiment [7] relates to NCI-H23.
The subject of experiment [8] is OVCAR-5.
The test system of experiment [9] is NCI/ADR-RES.
Experiment [10] has as its system BT-549.
Experiment [11] relates to A498.
Experiment [12] concerns SK-MEL-5.
Experiment [13] relates to HCC 2998.
Experiment [14] concerns SF-268.
In experiment [15] the test system is EKVX.
In experiment [16] the test system is SK-OV-3.
Experiment [17] has as its system DU-145.
Experiment [18] relates to K562.
Experiment [19] has as its system UACC-62.
Experiment [20] relates to MDA-MB-435.

In the case of `CN(C)CCN(c1ccccn1)c1ccccn1`, the GI50 in experiment [1], in [2], in experiment [3], in experiment [4], in [5] and in experiment [6] was > 100 µM (inactive) each time. Also, the GI50 in experiment [7], in experiment [8], in [9], in experiment [10], in [11] and in experiment [12] was > 100 µM (inactive) each time. Besides, the GI50 in experiment [13], in experiment [14], in experiment [15], in experiment [16], in experiment [17] and in experiment [18] was > 100 µM (inactive) throughout. Moreover, the GI50 in experiment [19] and in [20] was > 100 µM (inactive) each time.
As to `COc1cc(Cn2c3c(c4cc(O)ccc42)C(=O)c2ccccc2C3=O)cc(OC)c1`, the GI50 in [1] is 4.5 µM (inactive); in experiment [2], 4.32 µM (inactive); in [3], 6.85 µM (inactive); in [4], 10.5 µM (inactive); in experiment [5], 3.92 µM (inactive); in experiment [6] it was 11.6 µM (inactive). Further, the GI50 in [7] was 8.57 µM (inactive); in experiment [8] it was 9.23 µM (inactive); in experiment [9] it was 6 µM (inactive); in [10], 1.82 µM (inactive); in experiment [11], 15.4 µM (inactive); in experiment [12], 4.29 µM (inactive). Also, the GI50 in experiment [13] was 6.19 µM (inactive); in experiment [14], 2.88 µM (inactive); in experiment [15] it was 15.3 µM (inactive); in experiment [16], 2.32 µM (inactive); in experiment [17], 10.8 µM (inactive); in experiment [19] it was 2.04 µM (inactive). Also, the GI50 in [20] is 0.743 µM (active).
In the case of `c1cc(C[S+]2CCCC2)ccc1C[S+]1CCCC1`, the GI50 is > 100 µM (inactive) in experiment [1]; > 100 µM (inactive) in experiment [2]; > 100 µM (inactive) in [3]; 65.5 µM (inactive) in experiment [4]; > 100 µM (inactive) in experiment [5]; > 100 µM (inactive) in experiment [6]. For the same compound, the GI50 in [7] is > 100 µM (inactive); in [8], > 100 µM (inactive); in experiment [9], > 100 µM (inactive); in experiment [10] it was > 100 µM (inactive); in experiment [11], 29.2 µM (inactive); in experiment [12], > 100 µM (inactive). The GI50 in [13], in experiment [14], in [15], in experiment [16], in experiment [17] and in [18] was > 100 µM (inactive) each time. For the same compound, the GI50 in experiment [19] and in experiment [20] was > 100 µM (inactive) throughout.
With `C=CCN1C[C@H](C)N([C@H](c2ccc(C(=O)NC(CC)CC)cc2)c2cccc(OC)c2)C[C@H]1C`, the GI50 in experiment [1] was 75 µM (inactive); in experiment [2] it was 21.2 µM (inactive); in [3] it was 39.8 µM (inactive); in experiment [4] it was 33.9 µM (inactive); in experiment [5], 33.7 µM (inactive); in experiment [6] it was 66.4 µM (inactive). For the same compound, the GI50 is 43.2 µM (inactive) in [7]; 59.6 µM (inactive) in experiment [8]; 42.8 µM (inactive) in experiment [9]; 29.1 µM (inactive) in experiment [10]; 21.7 µM (inactive) in experiment [11]; 17.9 µM (inactive) in experiment [12]. Further, the GI50 in experiment [13] is 29.2 µM (inactive); in experiment [14], 83.2 µM (inactive); in experiment [15], 79.4 µM (inactive); in [16] it was > 100 µM (inactive); in experiment [17] it was 81.8 µM (inactive); in [18] it was 32.4 µM (inactive). The GI50 was 20.8 µM (inactive) in [19] and 35.6 µM (inactive) in experiment [20].
For `CCc1nc(N)nc(N)c1-c1ccc([N+](C)(C)C)cc1`, the GI50 in [1], in [2], in experiment [3], in experiment [4], in [5] and in experiment [6] was > 100 µM (inactive) each time. Further, the GI50 in experiment [7], in experiment [8], in experiment [9], in [10], in [11] and in experiment [12] was > 100 µM (inactive) throughout. Besides, the GI50 in experiment [13] was > 100 µM (inactive); in [14], > 100 µM (inactive); in experiment [15], > 100 µM (inactive); in [16] it was > 100 µM (inactive); in experiment [17], > 100 µM (inactive); in experiment [18], > 83.4 µM (inactive). Besides, the GI50 in [19] and in experiment [20] was > 100 µM (inactive) throughout.
For the compound `CC(=O)OC1COC(Nc2nc(N)n(C)c(=O)c2N=O)C(OC(C)=O)C1OC(C)=O` (configuration not stated), the GI50 in experiment [1], in experiment [3], in [4], in experiment [5], in experiment [6] and in experiment [7] was > 10 µM (inactive) in each case. Further, the GI50 in experiment [8], in [9], in experiment [10], in experiment [11], in experiment [12] and in experiment [13] was > 10 µM (inactive) throughout. The GI50 in experiment [14], in experiment [15], in [16], in experiment [17], in experiment [19] and in [20] was > 10 µM (inactive) each time.
`COC1OC(CBr)C(OC(c2ccccc2)(c2ccccc2)c2ccccc2)C(OC(c2ccccc2)(c2ccccc2)c2ccccc2)C1OC(c1ccccc1)(c1ccccc1)c1ccccc1` (configuration not stated): the GI50 in experiment [1] is 24.3 µM (inactive); in experiment [2] it was 14.3 µM (inactive); in [3], 42 µM (inactive); in experiment [4], 38.9 µM (inactive); in experiment [5], 33.4 µM (inactive); in [6], 28.3 µM (inactive). The GI50 in experiment [7] was 87.3 µM (inactive); in experiment [8], 41 µM (inactive); in [9] it was 51.6 µM (inactive); in experiment [10] it was 56.9 µM (inactive); in experiment [11], 78.2 µM (inactive); in experiment [12], 66.5 µM (inactive). The GI50 in experiment [13] is 65.2 µM (inactive); in experiment [14] it was 63.5 µM (inactive); in experiment [15] it was 17.5 µM (inactive); in experiment [16], 23 µM (inactive); in experiment [17], 76.2 µM (inactive); in [18] it was > 100 µM (inactive). Further, the GI50 in experiment [19] and in experiment [20] was > 100 µM (inactive) each time.
Consider `CC1(C)[C@@H]2C[C@H]1C(Cc1cccc(C[C@H]3c4cc(-c5ccccn5)ncc4[C@H]4C[C@@H]3C4(C)C)c1)c1cc(-c3ccccn3)ncc12` (some centres not stated), for which the GI50 in [1] is 1.61 µM (inactive); in experiment [2], 0.785 µM (active); in [3], 0.92 µM (active); in [4] it was 0.518 µM (active); in experiment [5], 8.41 µM (inactive); in experiment [6], 2.44 µM (inactive). The GI50 is 1.82 µM (inactive) in experiment [7]; 1.12 µM (active) in [8]; 4.06 µM (inactive) in experiment [9]; 5.06 µM (inactive) in experiment [10]; 3.51 µM (inactive) in [11]; 0.303 µM (active) in experiment [12]. For the same compound, the GI50 in experiment [13] was 0.923 µM (active); in experiment [14], 0.513 µM (active); in experiment [16], 1.25 µM (inactive); in [17], 0.993 µM (active); in experiment [18] it was 0.435 µM (active); in experiment [19], 0.499 µM (active). Further, the GI50 in [20] is 0.548 µM (active).
Turning to `C[N+](C)(C)CC(=O)N/N=C(/CC1OC(=O)c2ccccc21)c1ccccc1O` (configuration not stated), the GI50 is 46.8 µM (inactive) in experiment [1]; 24.2 µM (inactive) in experiment [2]; 42.4 µM (inactive) in experiment [3]; 76.6 µM (inactive) in [4]; 28 µM (inactive) in experiment [5]; 31.9 µM (inactive) in experiment [6]. Also, the GI50 in experiment [7] was 26.5 µM (inactive); in experiment [8], > 100 µM (inactive); in experiment [9], 19.3 µM (inactive); in experiment [10] it was 25.1 µM (inactive); in [11] it was 38.5 µM (inactive); in [12], 46.6 µM (inactive). In addition, the GI50 was 22.4 µM (inactive) in experiment [13]; 81.8 µM (inactive) in [14]; 62.4 µM (inactive) in [15]; 35.2 µM (inactive) in [16]; 34.7 µM (inactive) in [17]; 22.9 µM (inactive) in experiment [19]. For the same compound, the GI50 in experiment [20] was 30.6 µM (inactive).
In the case of `O=c1cc(N2CCCC2)[nH]c(=O)n1-c1cccc(Cl)c1`, the GI50 in [1], in experiment [3], in [5], in experiment [6], in experiment [7] and in [8] was > 100 µM (inactive) each time. In addition, the GI50 in experiment [9], in experiment [10], in [11], in [13], in experiment [14] and in experiment [15] was > 100 µM (inactive) throughout. Also, the GI50 in experiment [16], in experiment [17], in experiment [18], in [19] and in experiment [20] was > 100 µM (inactive) in each case.
